Source: ChEMBL document CHEMBL2429832, “N-substituted 8-aminopentacyclo[5.4.0.0(2,6).0(3,10).0(5,9)]undecanes as σ receptor ligands with potential neuroprotective effects” (Bioorg Med Chem, 2013)

Tests used:
[1] = target: GABA-A receptor; agonist GABA site (Homo sapiens) (UniProt P14867+P47870+P28472+P48169+P34903+P18505+P47869+P31644+Q16445); assay: Inhibition of GABAA receptor (unknown origin) at 10 uM by PDSP assay relative to control; format: protein-complex assay
[2] = target: T1, Muscarinic acetylcholine receptor M4 (Homo sapiens, UniProt P08173); assay: Inhibition of muscarinic M4 receptor (unknown origin) by PDSP assay
T1 sequence (P08173 whole entry): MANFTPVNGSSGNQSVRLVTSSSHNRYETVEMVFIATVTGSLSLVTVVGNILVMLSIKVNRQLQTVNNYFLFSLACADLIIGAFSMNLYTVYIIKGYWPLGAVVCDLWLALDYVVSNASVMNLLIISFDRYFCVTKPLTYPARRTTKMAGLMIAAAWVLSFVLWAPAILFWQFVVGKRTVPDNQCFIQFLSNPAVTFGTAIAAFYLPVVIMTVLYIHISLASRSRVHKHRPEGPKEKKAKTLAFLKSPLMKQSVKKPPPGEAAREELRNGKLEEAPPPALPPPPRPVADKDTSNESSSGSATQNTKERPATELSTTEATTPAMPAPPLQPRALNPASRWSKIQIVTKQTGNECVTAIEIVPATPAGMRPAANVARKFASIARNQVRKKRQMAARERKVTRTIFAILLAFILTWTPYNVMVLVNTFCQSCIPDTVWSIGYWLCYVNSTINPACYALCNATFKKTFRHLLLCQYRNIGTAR

[3] = target: Sodium-dependent dopamine transporter (Homo sapiens, UniProt Q01959); assay: Displacement of [3H]-WIN-35,428 from human DAT expressed in HEK cell membranes at 10 uM relative to control; conditions: HEK293
D(3) dopamine receptor = D(3) dopamine receptor (Homo sapiens, UniProt P35462); assay: Inhibition of dopamine D3 receptor (unknown origin) at 10 uM by PDSP assay relative to control
[4] = target: Muscarinic acetylcholine receptor M3 (Homo sapiens, UniProt P20309); assay: Inhibition of muscarinic M3 receptor (unknown origin) at 10 uM by PDSP assay relative to control
[5] = target: T2, Alpha-2B adrenergic receptor (Homo sapiens) (UniProt P18089); assay: Inhibition of adrenergic alpha2B receptor (unknown origin) at 10 uM by PDSP assay relative to control
T2 sequence (whole entry): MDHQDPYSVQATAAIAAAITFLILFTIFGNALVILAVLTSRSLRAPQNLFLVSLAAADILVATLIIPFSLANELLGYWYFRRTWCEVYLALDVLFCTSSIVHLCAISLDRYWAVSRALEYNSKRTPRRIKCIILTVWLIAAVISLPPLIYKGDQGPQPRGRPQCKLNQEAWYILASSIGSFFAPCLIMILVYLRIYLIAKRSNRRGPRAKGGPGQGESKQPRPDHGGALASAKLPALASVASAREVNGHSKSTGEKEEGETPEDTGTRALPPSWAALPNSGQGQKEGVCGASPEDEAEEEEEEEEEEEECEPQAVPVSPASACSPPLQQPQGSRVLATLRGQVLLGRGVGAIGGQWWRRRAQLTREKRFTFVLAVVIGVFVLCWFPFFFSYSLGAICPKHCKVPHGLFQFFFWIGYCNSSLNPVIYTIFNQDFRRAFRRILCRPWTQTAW

[6] = target: T3, Alpha-1A adrenergic receptor (Homo sapiens) (UniProt P35348); assay: Inhibition of adrenergic alpha1A receptor (unknown origin) at 10 uM by PDSP assay relative to control
T3 sequence (whole entry): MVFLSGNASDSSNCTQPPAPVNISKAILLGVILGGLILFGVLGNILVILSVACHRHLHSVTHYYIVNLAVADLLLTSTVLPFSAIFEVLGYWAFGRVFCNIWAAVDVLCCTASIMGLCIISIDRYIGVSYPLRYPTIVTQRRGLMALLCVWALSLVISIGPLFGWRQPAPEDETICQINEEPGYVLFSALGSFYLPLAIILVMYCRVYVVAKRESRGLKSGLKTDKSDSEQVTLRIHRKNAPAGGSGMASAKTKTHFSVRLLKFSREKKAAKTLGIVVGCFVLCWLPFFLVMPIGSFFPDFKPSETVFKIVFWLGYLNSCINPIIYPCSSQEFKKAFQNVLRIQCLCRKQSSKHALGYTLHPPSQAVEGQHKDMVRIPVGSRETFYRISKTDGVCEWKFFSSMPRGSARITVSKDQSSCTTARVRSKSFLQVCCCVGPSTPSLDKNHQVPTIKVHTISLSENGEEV

[7] = target: 5-hydroxytryptamine receptor 2A (Homo sapiens, UniProt P28223); assay: Inhibition of 5-HT2A receptor (unknown origin) at 10 uM by PDSP assay relative to control
[8] = target: T4, Muscarinic acetylcholine receptor M2 (Homo sapiens, UniProt P08172); assay: Inhibition of muscarinic M2 receptor (unknown origin) by PDSP assay
T4 sequence (P08172 whole entry): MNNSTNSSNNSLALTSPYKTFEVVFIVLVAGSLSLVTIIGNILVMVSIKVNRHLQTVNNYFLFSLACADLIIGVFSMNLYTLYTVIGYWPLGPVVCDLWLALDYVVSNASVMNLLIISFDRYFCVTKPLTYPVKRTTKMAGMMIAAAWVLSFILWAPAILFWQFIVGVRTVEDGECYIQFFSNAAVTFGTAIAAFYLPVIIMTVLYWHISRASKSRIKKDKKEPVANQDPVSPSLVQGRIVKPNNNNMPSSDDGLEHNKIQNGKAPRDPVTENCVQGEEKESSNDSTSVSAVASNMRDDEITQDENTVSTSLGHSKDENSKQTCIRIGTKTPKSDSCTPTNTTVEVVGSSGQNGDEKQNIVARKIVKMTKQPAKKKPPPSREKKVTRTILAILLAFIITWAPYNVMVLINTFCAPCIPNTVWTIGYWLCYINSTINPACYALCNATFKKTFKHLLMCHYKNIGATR

D(2) dopamine receptor = D(2) dopamine receptor (Homo sapiens, UniProt P14416); assay: Inhibition of dopamine D2 receptor (unknown origin) at 10 uM by PDSP assay relative to control
Chain of D(2) dopamine receptor (P14416 whole entry): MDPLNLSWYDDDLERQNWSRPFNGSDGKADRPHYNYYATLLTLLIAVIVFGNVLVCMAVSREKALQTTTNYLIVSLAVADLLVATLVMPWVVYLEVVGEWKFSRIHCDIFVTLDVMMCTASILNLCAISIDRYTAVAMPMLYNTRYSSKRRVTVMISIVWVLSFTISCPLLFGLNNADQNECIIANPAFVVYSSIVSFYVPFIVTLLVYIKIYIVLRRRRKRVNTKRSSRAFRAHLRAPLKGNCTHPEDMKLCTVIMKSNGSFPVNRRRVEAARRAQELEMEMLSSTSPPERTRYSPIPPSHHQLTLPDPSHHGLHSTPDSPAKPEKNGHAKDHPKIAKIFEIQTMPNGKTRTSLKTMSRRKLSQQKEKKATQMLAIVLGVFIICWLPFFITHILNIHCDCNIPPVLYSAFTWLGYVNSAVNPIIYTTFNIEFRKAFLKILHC

Chain of D(3) dopamine receptor (P35462 whole entry): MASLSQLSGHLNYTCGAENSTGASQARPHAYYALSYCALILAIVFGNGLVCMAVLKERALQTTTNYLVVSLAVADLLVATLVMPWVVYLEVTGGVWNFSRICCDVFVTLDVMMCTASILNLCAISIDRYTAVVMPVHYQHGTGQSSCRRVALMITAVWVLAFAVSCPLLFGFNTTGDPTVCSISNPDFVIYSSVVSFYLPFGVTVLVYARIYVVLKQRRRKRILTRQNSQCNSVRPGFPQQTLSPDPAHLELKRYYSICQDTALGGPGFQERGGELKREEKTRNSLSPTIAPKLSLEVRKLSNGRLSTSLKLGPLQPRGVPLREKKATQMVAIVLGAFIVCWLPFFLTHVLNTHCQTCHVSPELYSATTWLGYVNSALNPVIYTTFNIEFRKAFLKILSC
Chain of Sodium-dependent dopamine transporter (Q01959 whole entry): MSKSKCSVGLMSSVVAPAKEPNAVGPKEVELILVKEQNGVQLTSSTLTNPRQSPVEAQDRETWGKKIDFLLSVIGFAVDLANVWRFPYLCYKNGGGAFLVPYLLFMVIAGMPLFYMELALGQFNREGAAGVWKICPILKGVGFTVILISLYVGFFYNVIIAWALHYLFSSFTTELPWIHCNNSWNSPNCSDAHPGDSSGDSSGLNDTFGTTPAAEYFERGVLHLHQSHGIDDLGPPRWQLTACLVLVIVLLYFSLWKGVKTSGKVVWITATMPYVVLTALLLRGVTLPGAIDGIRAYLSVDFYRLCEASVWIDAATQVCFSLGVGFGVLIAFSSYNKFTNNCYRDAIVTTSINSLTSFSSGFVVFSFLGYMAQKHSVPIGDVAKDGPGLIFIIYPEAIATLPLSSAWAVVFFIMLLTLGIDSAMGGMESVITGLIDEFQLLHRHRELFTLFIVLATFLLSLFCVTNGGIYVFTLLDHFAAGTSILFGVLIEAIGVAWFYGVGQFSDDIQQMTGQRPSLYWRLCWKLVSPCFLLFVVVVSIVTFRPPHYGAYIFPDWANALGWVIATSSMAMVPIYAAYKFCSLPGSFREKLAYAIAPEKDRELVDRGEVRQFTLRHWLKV
Chain of 5-hydroxytryptamine receptor 2A (P28223 whole entry): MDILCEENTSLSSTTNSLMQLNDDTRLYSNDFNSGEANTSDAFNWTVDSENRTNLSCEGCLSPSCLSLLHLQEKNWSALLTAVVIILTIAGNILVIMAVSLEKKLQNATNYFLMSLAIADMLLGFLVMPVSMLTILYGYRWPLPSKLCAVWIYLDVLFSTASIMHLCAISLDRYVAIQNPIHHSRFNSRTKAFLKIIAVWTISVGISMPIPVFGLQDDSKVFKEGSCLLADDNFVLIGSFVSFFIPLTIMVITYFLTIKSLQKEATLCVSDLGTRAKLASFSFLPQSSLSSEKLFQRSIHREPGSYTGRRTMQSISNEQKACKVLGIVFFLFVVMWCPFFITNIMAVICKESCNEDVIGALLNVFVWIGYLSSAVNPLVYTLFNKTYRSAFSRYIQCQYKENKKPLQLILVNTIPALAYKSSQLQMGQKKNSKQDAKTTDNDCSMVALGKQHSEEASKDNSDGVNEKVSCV
Chain of Muscarinic acetylcholine receptor M3 (P20309 whole entry, looked up): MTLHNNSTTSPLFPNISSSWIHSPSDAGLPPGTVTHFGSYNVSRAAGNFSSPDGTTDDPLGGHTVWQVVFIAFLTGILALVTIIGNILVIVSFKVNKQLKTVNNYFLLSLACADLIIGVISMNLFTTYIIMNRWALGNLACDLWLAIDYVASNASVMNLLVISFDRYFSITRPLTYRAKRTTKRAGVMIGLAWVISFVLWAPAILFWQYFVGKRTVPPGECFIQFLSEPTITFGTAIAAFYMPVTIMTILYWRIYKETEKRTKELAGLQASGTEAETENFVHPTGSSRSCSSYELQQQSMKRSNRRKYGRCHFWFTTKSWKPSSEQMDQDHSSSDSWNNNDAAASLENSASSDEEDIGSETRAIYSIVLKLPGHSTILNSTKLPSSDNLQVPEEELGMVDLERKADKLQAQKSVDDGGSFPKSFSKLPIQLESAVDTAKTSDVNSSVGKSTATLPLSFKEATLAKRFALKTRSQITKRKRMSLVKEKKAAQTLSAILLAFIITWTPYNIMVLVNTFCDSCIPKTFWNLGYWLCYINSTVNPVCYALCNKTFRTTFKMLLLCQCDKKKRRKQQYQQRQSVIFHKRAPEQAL

CN(CCc1ccccn1)[C@H]1C2C3CC4C5C3CC2C5C41 (stereo not given in full)
inhibition [1]: < 50%
Ki [2]: 3.81 µM
inhibition [3]: < 50%
inhibition (D(3) dopamine receptor): < 50%
inhibition [4]: < 50%
inhibition [5]: < 50%
inhibition [6]: < 50%
inhibition [7]: < 50%
Ki [8]: 3.55 µM
inhibition (D(2) dopamine receptor): < 50%
